Measurements published in US20060104944A1, “Activators and inhibitors of protease activated receptor2 (PAR2) and methods of use” (priority 2004, published 2006).
No end group written: not given here. *: point of attachment. tc = trans-cinnamoyl N-cap, O=C(/C=C/c1ccccc1)*; code O = not defined here

Key:
[1] = biological target: T1, PAR-1 (Homo sapiens, UniProt P25116); details: PAR-1 antagonist, variety of bioassays; cited from earlier work
T1 sequence (P25116 22-425): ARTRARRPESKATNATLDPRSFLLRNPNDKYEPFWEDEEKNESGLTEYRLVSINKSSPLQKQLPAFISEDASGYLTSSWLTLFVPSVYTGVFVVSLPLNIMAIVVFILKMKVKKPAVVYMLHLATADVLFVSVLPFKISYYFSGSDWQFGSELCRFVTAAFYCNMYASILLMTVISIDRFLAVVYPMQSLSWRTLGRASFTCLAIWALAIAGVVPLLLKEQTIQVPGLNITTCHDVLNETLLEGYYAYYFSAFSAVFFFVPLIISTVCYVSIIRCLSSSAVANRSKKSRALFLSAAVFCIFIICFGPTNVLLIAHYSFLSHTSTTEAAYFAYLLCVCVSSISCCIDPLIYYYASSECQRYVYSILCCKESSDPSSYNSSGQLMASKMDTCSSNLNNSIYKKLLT

[2] = biological target: T2, PAR-2 (Homo sapiens, UniProt P55085); details: in words; cited from earlier work
T2 sequence (P55085 26-397): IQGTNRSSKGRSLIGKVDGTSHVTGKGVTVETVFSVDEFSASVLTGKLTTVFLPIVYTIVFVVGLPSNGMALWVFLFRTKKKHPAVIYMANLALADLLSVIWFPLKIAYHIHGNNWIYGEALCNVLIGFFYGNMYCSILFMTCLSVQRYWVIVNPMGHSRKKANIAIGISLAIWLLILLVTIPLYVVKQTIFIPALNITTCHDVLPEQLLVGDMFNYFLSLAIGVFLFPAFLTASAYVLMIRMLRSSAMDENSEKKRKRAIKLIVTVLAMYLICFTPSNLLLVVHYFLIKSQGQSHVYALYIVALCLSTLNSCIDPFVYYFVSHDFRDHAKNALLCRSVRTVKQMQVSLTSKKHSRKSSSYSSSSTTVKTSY

[3] = test system: Human umbilical vein endothelial cells (HUVEC); test: Endothelial cell tube formation on Matrigel; format: cell-based; details: agent alone; FGF2 0.1 μg, PAR2 agonist 0.25 μg; n = 3
Protocol: Differentiation by endothelial cells was examined using a method developed by Grant et al. (Grant et al., In Vitro Cell Dev. Biol., 27A:327-336 (1991), which is hereby incorporated by reference in its entirety). Matrigel® matrix, phenol-red free (commercially available from Becton Dickinson, Bedford, Mass.) was thawed overnight at 4° C. Using cold pipette tips, 3.0 mg/well of Matrigel® matrix was placed in a cold twenty-four-multiwell plate (Falcon). Matrigel® matrix was allowed to polymerize during incubation at 37° C. for 30 minutes.
Human umbilical vein endothelial cells (HUVEC) were maintained at 37° C. with 5% CO2 and 95% humidity in endothelial cell growth medium with 2% fetal bovine serum (EGM). The tube assay was performed in endothelial cell basal medium (EBM) supplemented with 0.5% bovine serum albumin (BSA) and 1:100 diluted Insulin-Transferrin-Selenium-G supplement (I-T-Se, 100×). HUVEC were trypsinized, centrifuged, and, subsequently, washed twice in phosphate buffered saline (PBS). […] Digital images of micro-titer well sections were collected using a DKC5000 3-CCD color video camera system (Toshiba America, New York, N.Y.) and analyzed using Image-Pro Plus software (Media Cybernetics, Silver Spring, Md.). The area and major axis length of stained cells having a tubular morphology was measured on the Matrigel® matrix surface (Becton Dickinson, Bedford, Pa.).

[4] = test system: chick chorioallantoic membrane (CAM); test: Neovascularization in the chick chorioallantoic membrane (CAM) model; format: in vivo; details: Table 5; for Mean % Inhibition ± SEM: inhibition of PAR-2 (SEQ ID NO: 3, 0.3 ug/ml) stimulated angiogenesis, inhibitor doses as E12
[5] = test system: chick chorioallantoic membrane (CAM); test: as above; format: in vivo; details: for PAR2-induced angiogenesis in the CAM model: in words, FIG. 3, Table 5; for Branch Points ± SEM: Table 3, agent alone: FGF2 1 ug/ml, VEGF 2 ug/ml, PAR-1 3 ug, PAR-2 0.3 ug, n = 8; for Mean Number of Branch Points ± SD: Table 4, agent alone: FGF2 1.0 μg, PAR2 agonist 5.0 μg, TF/factor VIIa, N = 16
Protocol: In vivo neovascularization was examined by the method previously described by Auerbach et al. (Auerbach et al., J. Dev. Biol., 41:391-394 (1974), which is hereby incorporated by reference in its entirety). Ten-day old embryos were purchased from Spafas, Inc. (Preston, Conn.) and were incubated at 37° C. with 55% relative humidity. In the dark with the help of a candling lamp, a small hole was punctured in the shell concealing the air sac with a hypodermic needle. A second hole was punctured in the shell on the broadside of the egg directly over an avascular portion of the embryonic membrane, as observed during candling. A false air sac was created beneath the second hole by the application of negative pressure to the first hole, which caused the chorioallantoic membrane (CAM) to separate from the shell. A window, approximately 1.0 cm^2, was cut in the shell over the dropped CAM with the use of a small crafts grinding wheel (Dremel, Division of Emerson Electric Company Racine, Wisconsin) which allowed direct access to the underlying CAM. Filter disks of #1 filter paper (Whatman International, United Kingdom) were soaked in 3 mg/ml cortisone acetate (Sigma, St. Louis, Mo.) in a solution of 95% ethanol and water and subsequently air dried under sterile conditions. FGF2 (Life Technologies, Gaithersburg, Md.) was used to grow vessels on the CAMs of 10 day old chick embryos. Sterile filter disks adsorbed with FGF2 dissolved in PBS at 1 μg/ml were placed on growing CAMs. […] At 24 h, test compounds or control vehicle was added directly to CAM topically.
(§1) CAM tissue directly beneath FGF2-saturated filter disk was resected from embryos treated 48 hours prior with test compound or control. Tissues were washed three times with PBS. Sections were placed in a 35-mm petri dish (Nalge Nunc, Rochester, N.Y.) and examined under a SV6 stereomicroscope (Karl Zeiss, Thornwood, N.Y.) at 50× magnification. Digital images of CAM sections adjacent to filters were collected using a 3-CCD color video camera system (Toshiba America, New York, N.Y.) and analyzed using Image-Pro Plus software (Media Cybernetics, Silver Spring, Md.).
as §1, with “48 h” for “48 hours”, “with” for “with test”, “analyzed with the” for “analyzed using”

[6] = biological target: T2, PAR-2; details: at PAR-2; in words; cited from earlier work
[7] = test system: rat aorta; details: in words; cited from earlier work
[8] = biological target: T1, PAR-1; details: at PAR-1; in words; cited from earlier work
[9] = test system: Human dermal micro-vascular endothelial cells (HDMEC); test: In vitro 3D sprout angiogenesis (vessel tube length) assay; format: cell-based; details: agent alone, 1 ug
Protocol: Culture of HDMEC on micro-carrier beads: 80% confluent HDMEC (Passage 5-10) were mixed with gelatin-coated Cytodex-3 beads with a ratio of 40 cells per bead. Suspend cells and beads (150-200 beads per well for 24-well plate) with 5 ml EBM+15% normal human serum, mix gently every one hour for first four hours, then leave the mixture culture in CO2 incubator overnight. The next morning, add 10 ml of fresh EBM+15% HS and culture for another three hours. Before experiments, check the culture of EC-beads. Add 500 μl of PBS in a well of 24-well plate, take 100 ul of the EC-bead culture solution, and add it to the PBS, observe and count the number of beads, calculate the concentration of EC-beads. The EC-beads are good for experiments for 48 hours.
Prepare fibrinogen solution (1 mg/ml) in EBM medium with or without angiogenesis factors or testing factors. For positive control, use 30 ng/ml VEGF+25 ng/ml FGF2. Wash EC-beads with EBM medium for two times and add EC-beads to fibrinogen solution. For each condition, do experiment in triplicates. Mix the EC-beads in fibrinogen solution gently and add 2.5 μl human thrombin (0.05 U/μl) in 1 ml fibrinogen solution, immediately transfer 300 ul to each well of 24-well plate. The fibrinogen solution will polymerize in 5-10 minutes, after 20 minutes, add EBM+20% normal human serum+10 μg/ml Aprotinin. Incubate the plate in CO2 incubator. […]

[10] = test system: isolated blood vessel preparations; details: in words, cited from earlier work
[11] = PAR-2 (SEQ ID NO: 3, 0.3 ug/ml) + inhibitor: XT199 10 ug, anti-VII/VIIa 3 ug, PD98059 5 ug, Hirudin 1 U, PAR-2 mAb 3 ug, anti-TF mAb 2 ug

NCC[C@H](NC(=O)[C@H](Cc1ccc(F)c(F)c1)NC(=O)Nc1ccc2c(CN3CCCC3)cn(Cc3c(Cl)cccc3Cl)c2c1)C(=O)NCc1ccccc1 [RWJ-56110]
IC50 [1]: 100 to 500 nM
activity as a PAR-2 antagonist [2]: inactive

HOOC-S-L-I-G-R-L-NH2 (SLIGRL-NH2; also: 'HOOC-' written at N-terminus) [SEQ ID NO: 4]
Mean Endothelial tube length (mm) ± SD [3]: 58 ± 4 mm

Hirudin
Mean Branch points ± SEM [4, 11]: 174 ± 9
Mean % Inhibition ± SEM [4]: 3 ± 8%
PAR2-induced angiogenesis in the CAM model [5]: not

LSIGRL [LSIGRL-NH2, PAR2 antagonist]
agonistic activity [6]: lack agonistic activity

FSLLRY [FSLLRY-NH2, PAR2 antagonist]
trypsin relaxant activity [7]: antagonize
agonistic activity [8]: lack agonistic activity

HOOC-S-L-I-G-K-V-NH2 (SLIGKV-NH2; also: 'HOOC-' written at N-terminus) [SEQ ID NO: 5]
Branch Points ± SEM [5]: 197 ± 15
Mean Number of Branch Points ± SD [5]: 205 ± 8
Vessel Length(mm) ± SEM [9]: 1.39 ± 0.28 mm

VEGF
Branch Points ± SEM [5]: 168 ± 10

HOOC-L-I-G-R-L-O-NH2 (LIGRL-{code O-NH2}; reading uncertain; also: 'HOOC-' written at N-terminus) [SEQ ID NO: 3]
Mean Branch points ± SEM ([4]; PAR-2 agonist alone, 0.3 ug/ml, n = 8): 176 ± 14
Mean Branch points ± SEM ([4]; PAR-2 agonist alone, 0.3 ug/ml, n = 8, listed as PAR-2): 186 ± 17

TFLLRN [SEQ ID NO: 6, PAR1 agonist peptide used for comparison]
Branch Points ± SEM [5]: 101 ± 7
Vessel Length(mm) ± SEM [9]: 0.88 ± 0.08 mm

tc-LIGRLO (tc-LIGRL-{code O}; reading uncertain; also: printed as tc-LIGRLO)
activity in the relaxation assay ([10]; compared with SLIGRL): equally active
contraction [10]: does not cause contraction

COc1cccc(-c2cc(=O)c3ccccc3o2)c1N [PD98059]
Mean Branch points ± SEM [4, 11]: 102 ± 9
Mean % Inhibition ± SEM [4]: 88 ± 12%
PAR2-induced angiogenesis in the CAM model [5]: blocked

FGF2: human fibroblast growth factor basic
Mean Endothelial tube length (mm) ± SD [3]: 64 ± 5 mm
increase in angiogenesis index ([5]; 1 μg of FGF2): 2-3 fold
Branch Points ± SEM [5]: 182 ± 11
Mean Number of Branch Points ± SD [5]: 198 ± 14
